From ChEMBL document CHEMBL1152897, “Synthesis and SAR study of novel pseudo-steroids as potent and selective progesterone receptor antagonists” (Bioorg Med Chem Lett, 2009) come the findings set out here.

The target in one assay is T1, Glucocorticoid receptor (Homo sapiens, UniProt P04150).
T1 sequence (P04150 whole entry): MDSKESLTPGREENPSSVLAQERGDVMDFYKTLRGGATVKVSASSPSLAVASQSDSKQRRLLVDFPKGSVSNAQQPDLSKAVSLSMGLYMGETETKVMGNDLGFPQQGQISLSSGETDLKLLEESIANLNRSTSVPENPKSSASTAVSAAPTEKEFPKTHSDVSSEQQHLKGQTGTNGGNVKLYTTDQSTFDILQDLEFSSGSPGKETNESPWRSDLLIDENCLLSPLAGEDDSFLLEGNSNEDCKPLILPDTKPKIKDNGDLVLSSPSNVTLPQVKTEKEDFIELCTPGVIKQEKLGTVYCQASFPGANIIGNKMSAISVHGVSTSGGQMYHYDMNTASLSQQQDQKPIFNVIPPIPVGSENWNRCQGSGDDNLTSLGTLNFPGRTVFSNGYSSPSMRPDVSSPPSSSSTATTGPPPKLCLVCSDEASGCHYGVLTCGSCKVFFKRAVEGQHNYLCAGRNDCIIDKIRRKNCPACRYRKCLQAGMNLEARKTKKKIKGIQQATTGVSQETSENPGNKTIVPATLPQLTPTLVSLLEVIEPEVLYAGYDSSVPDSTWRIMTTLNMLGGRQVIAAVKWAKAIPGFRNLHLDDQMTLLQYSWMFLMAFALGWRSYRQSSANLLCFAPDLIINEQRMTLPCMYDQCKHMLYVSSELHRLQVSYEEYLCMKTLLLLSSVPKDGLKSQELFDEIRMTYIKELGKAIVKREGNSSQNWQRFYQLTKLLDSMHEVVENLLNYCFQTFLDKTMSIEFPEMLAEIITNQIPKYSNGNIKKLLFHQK
Briefly: Antagonist activity at glucocorticoid receptor in human A549 cells assessed as inhibition of corticoid-induced transcription after 16 hrs by glucocorticoid response element-driven luciferase reporter gene assay. It is filed as functional, cell-based. A general note: Reporter assays use an easily measured gene product as a stand-in for the process of interest.

In a further assay the target is T2, Progesterone receptor (Homo sapiens, UniProt P06401).
T2 sequence (P06401 whole entry): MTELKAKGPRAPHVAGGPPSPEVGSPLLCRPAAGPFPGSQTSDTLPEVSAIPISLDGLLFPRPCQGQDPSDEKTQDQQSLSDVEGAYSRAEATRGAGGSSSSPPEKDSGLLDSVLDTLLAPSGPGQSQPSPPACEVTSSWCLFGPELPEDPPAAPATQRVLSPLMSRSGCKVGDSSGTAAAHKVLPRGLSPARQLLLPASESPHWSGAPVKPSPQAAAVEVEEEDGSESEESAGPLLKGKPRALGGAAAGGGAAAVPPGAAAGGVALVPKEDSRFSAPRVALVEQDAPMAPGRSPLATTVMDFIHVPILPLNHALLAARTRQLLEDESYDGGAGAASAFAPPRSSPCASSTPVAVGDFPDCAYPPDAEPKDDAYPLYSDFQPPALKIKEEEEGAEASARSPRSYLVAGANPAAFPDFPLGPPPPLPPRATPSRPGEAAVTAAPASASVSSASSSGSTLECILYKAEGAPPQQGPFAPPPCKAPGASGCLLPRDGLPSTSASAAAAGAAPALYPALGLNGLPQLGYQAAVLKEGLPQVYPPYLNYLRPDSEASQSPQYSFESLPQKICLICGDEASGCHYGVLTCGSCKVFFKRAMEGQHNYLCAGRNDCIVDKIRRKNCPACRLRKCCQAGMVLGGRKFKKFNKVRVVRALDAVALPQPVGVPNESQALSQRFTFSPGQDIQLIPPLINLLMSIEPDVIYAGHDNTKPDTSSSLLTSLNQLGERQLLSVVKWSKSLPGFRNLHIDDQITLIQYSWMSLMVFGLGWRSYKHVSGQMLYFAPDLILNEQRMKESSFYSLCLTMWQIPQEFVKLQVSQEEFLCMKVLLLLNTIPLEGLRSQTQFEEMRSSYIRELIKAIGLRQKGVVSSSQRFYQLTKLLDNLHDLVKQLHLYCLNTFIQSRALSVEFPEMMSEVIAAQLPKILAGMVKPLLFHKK
Description: Antagonist activity at progesterone receptor in human T47D cells assessed as inhibition of progesterone-induced alkaline phosphatase activity. It is filed as functional, cell-based.

The test system of the next assay is Rattus norvegicus. Description: Blockade of progesterone-dependent inhibition of ethinyl estradiol-induced complement C3 expression in po dosed ovariectomized Sprague-Dawley rat uterus. It is filed as functional, organism-based.

On to `COc1ccc([C@H]2OC[C@@]3(C)[C@@H](CC[C@@]3(O)C#Cc3ccc(C(F)(F)F)cc3)[C@@H]3CCC4=CC(=O)CCC4=C32)cc1`, for which the IC50 on Glucocorticoid receptor is 26 nM; at Progesterone receptor, 82 nM.
Consider `C#C[C@]1(O)CC[C@H]2[C@@H]3CCC4=CC(=O)CCC4=C3[C@@H](c3ccc(OC)cc3)OC[C@@]21C`, for which the IC50 on Glucocorticoid receptor is 110 nM; on Progesterone receptor, over 1000 nM.
For `COc1ccc([C@H]2OC[C@@]3(C)[C@@H](CC[C@@]3(O)C#Cc3ccccc3)[C@@H]3CCC4=CC(=O)CCC4=C32)cc1`, in that order: 21 nM and 280 nM.
In the case of `CC#C[C@]1(O)CC[C@H]2[C@@H]3CCC4=CC(=O)CCC4=C3[C@@H](c3ccc(N(C)C)cc3)OC[C@@]21C`, the IC50 at Glucocorticoid receptor was found to be 17 nM; at Progesterone receptor, 34 nM; in the assay with Rattus norvegicus, 16 mg/kg.
For the compound `C=C(C)[C@]1(O)CC[C@H]2[C@@H]3CCC4=CC(=O)CCC4=C3[C@@H](c3ccc(SC)cc3)OC[C@@]21C`, the IC50 on Glucocorticoid receptor was 58 nM; at Progesterone receptor, 3.3 nM.
With `C=C1CCO[C@]12CC[C@H]1[C@@H]3CCC4=CC(=O)CCC4=C3[C@@H](c3ccc(N(C)C)cc3)OC[C@@]12C`, the IC50 on Glucocorticoid receptor is 62 nM; at Progesterone receptor it was 1 nM.
Taken in the same sequence, the figures for `CSc1ccc([C@H]2OC[C@@]3(C)[C@@H](CC[C@@]3(O)C(F)(F)C(F)(F)F)[C@@H]3CCC4=CC(=O)CCC4=C32)cc1` were 7 nM and 56 nM.
Taken in the same sequence, the figures for `CN(C)c1ccc([C@H]2OC[C@@]3(C)[C@@H](CC[C@@]3(O)C#Cc3ccccc3)[C@@H]3CCC4=CC(=O)CCC4=C32)cc1` were 102 nM and 60 nM.
For `CN(C)c1ccc([C@H]2OC[C@]3(C)[C@@H](O)CC[C@H]3[C@@H]3CCC4=CC(=O)CCC4=C32)cc1`, in that order: 1400 nM and 930 nM.
Regarding `C=C(C)[C@]1(O)CC[C@H]2[C@@H]3CCC4=CC(=O)CCC4=C3[C@@H](c3ccc(N(C)C)cc3)OC[C@@]21C`, the IC50 was 150 nM on Glucocorticoid receptor and 0.3 nM at Progesterone receptor.
Consider `C=C(C)[C@]1(O)CC[C@H]2[C@@H]3CCC4=CC(=O)CCC4=C3[C@@H](c3ccc(S(C)(=O)=O)cc3)OC[C@@]21C`, for which the IC50 was over 3000 nM at Glucocorticoid receptor and over 1000 nM at Progesterone receptor.
Taken in the same sequence, the figures for `CN(C)c1ccc([C@H]2OC[C@@]3(C)[C@@H](CC[C@@]3(O)C(F)(F)C(F)(F)F)[C@@H]3CCC4=CC(=O)CCC4=C32)cc1` were 20 nM and 36 nM.
As to `C=C1CCO[C@]12CC[C@H]1[C@@H]3CCC4=CC(=O)CCC4=C3[C@@H](c3ccc(OC)cc3)OC[C@@]12C`, the IC50 on Glucocorticoid receptor is 132 nM; at Progesterone receptor, 7 nM.
Taken in the same sequence, the figures for `CC#C[C@]1(O)CC[C@H]2[C@@H]3CCC4=CC(=O)CCC4=C3[C@@H](c3ccc(OC)cc3)OC[C@@]21C` were 41 nM and over 1000 nM.
Take `C#C[C@]1(O)CC[C@H]2[C@@H]3CCC4=CC(=O)CCC4=C3[C@@H](c3ccc(N(C)C)cc3)OC[C@@]21C`: the IC50 was 68 nM at Glucocorticoid receptor and 33 nM on Progesterone receptor.
With `CC#C[C@]1(O)CC[C@H]2[C@@H]3CCC4=CC(=O)CCC4=C3[C@@H](c3ccc(N(C)C)cc3)C[C@@]21C` [MIFEPRISTONE], the IC50 with Rattus norvegicus is 4.6 mg/kg.
